Target: T1, STAT6 (Homo sapiens, UniProt P42226)
T1 construct: stably transfected HaCaT keratinocyte cell line, which expresses NanoLuc luciferase reporter gene under the transcriptional control of the STAT6 responsive promoter; endogenous in cells; host or cells: HaCaT keratinocyte reporter cell line (stably transfected with a NanoLuc reporter)
T1 sequence (P42226 1-847): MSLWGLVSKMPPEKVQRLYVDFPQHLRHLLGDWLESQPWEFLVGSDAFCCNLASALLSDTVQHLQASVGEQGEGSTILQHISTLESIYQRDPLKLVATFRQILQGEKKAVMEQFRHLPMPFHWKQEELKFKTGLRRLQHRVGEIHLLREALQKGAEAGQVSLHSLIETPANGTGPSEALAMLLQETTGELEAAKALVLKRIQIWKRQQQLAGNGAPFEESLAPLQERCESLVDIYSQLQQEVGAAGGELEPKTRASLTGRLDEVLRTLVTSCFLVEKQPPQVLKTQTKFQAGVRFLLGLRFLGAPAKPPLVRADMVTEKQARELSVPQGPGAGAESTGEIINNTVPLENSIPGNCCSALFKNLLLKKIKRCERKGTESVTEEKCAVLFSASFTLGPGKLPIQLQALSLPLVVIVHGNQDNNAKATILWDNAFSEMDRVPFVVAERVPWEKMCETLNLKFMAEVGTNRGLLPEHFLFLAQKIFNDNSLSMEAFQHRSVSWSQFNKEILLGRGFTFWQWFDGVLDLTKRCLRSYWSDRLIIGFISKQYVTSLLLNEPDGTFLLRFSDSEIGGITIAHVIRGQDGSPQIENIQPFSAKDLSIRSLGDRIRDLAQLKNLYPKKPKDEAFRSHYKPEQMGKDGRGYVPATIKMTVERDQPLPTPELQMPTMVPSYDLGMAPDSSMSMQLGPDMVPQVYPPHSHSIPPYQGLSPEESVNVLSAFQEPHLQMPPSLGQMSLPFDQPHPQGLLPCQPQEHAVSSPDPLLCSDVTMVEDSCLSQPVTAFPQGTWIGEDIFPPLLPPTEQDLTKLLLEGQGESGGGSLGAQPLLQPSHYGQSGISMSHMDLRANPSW
Experiment: STAT6 Reporter Luciferase Assay (IL-13 stimulated HaCaT keratinocyte NanoLuc reporter cells)
Assay type: cell-based
Details: IL-13 stimulated HaCaT STAT6 NanoLuc reporter cells; read-out: Reporter EC50
In short: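 Stably transfected HaCaT cells carrying NanoLuc under the STAT6-responsive IL-13Ra2 promoter were pre-treated with compound (11-point, 4-fold series, duplicate) for 2 h at 37 °C, then stimulated with 0.12 nM IL-13 for 4 h. Nano-Glo luminescence was read after 15 min.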

| Compound | EC50 |
| --- | --- |
| CC(C)n1nc(C(=O)NCc2ccc(NC(=O)N(C)C)cc2)c2c1CCN(c1ccc(C(=O)N3CC4(CNC(=O)C4)C3)cn1)C2 [Example 327, N-(4-(3,3-dimethylureido)benzyl)-1-isopropyl-5-(5-(7-oxo-2,6-diazaspiro[3.4]octane-2-carbonyl)pyridin-2-yl)-4,5,6,7-tetrahydro-1H-pyrazolo[4,3-c]pyridine-3-carboxamide] | 3200 nM |
| CC(C)n1nc(C(=O)NCc2ccc(NC(=O)N3CC(C)(N(C)C)C3)cc2)c2c1[C@@H](C)CN(c1ccc(C(=O)N(C)C)cc1)C2 [Example 748, (S)-N-(4-(3-(dimethylamino)-3-methylazetidine-1-carboxamido)benzyl)-5-(4-(dimethylcarbamoyl)phenyl)-1-isopropyl-7-methyl-4,5,6,7-tetrahydro-1H-pyrazolo[4,3-c]pyridine-3-carboxamide] | 1 nM |
| CC(C)n1nc(C(=O)NCc2ccc(NC(=O)N(C)C)cc2)c2c1CCN(c1ccc(C(=O)N3CCc4cc(C#N)ccc4C3)cn1)C2 [Example 436, 5-(5-(6-cyano-1,2,3,4-tetrahydroisoquinoline-2-carbonyl)pyridin-2-yl)-N-(4-(3,3-dimethylureido)benzyl)-1-isopropyl-4,5,6,7-tetrahydro-1H-pyrazolo[4,3-c]pyridine-3-carboxamide] | 22 nM |
| Cc1nc2c(o1)CCN(C(=O)c1ccc(N3CCc4c(c(C(=O)NCc5ccc(NC(=O)N(C)C)cc5)nn4C(C)C)C3)nc1)C2 [Example 423, N-(4-(3,3-dimethylureido)benzyl)-1-isopropyl-5-(5-(2-methyl-4,5,6,7-tetrahydrooxazolo[4,5-c]pyridine-5-carbonyl)pyridin-2-yl)-4,5,6,7-tetrahydro-1H-pyrazolo[4,3-c]pyridine-3-carboxamide] | 29 nM |
| CCNC(=O)CN(C)C(=O)c1ccc(N2CCc3c(c(C(=O)NCc4ccc(NC(=O)N(C)C)cc4)nn3C(C)C)C2)nc1 [Example 229, N-(4-(3,3-dimethylureido)benzyl)-5-(5-((2-(ethylamino)-2-oxoethyl)(methyl)carbamoyl)pyridin-2-yl)-1-isopropyl-4,5,6,7-tetrahydro-1H-pyrazolo[4,3-c]pyridine-3-carboxamide] | 592 nM |
| CC(C)n1nc(C(=O)NCc2ccc(NC(=O)N3CCC[C@H](N(C)C)C3)c(F)c2)c2c1[C@@H](C)CN(c1ccc(C(=O)N(C)C)cc1)C2 [Example 683, (S)-N-(4-((S)-3-(dimethylamino)piperidine-1-carboxamido)-3-fluorobenzyl)-5-(4-(dimethylcarbamoyl)phenyl)-1-isopropyl-7-methyl-4,5,6,7-tetrahydro-1H-pyrazolo[4,3-c]pyridine-3-carboxamide] | 3 nM |
| Cc1nc2n(n1)CCN(C(=O)c1ccc(N3CCc4c(c(C(=O)NCc5ccc(NC(=O)N(C)C)cc5)nn4C(C)C)C3)nc1)C2 [Example 413, N-(4-(3,3-dimethylureido)benzyl)-1-isopropyl-5-(5-(2-methyl-5,6,7,8-tetrahydro-[1,2,4]triazolo[1,5-a]pyrazine-7-carbonyl)pyridin-2-yl)-4,5,6,7-tetrahydro-1H-pyrazolo[4,3-c]pyridine-3-carboxamide] | 82 nM |
| CC(C)n1nc(C(=O)NCc2ccc(NC(=O)N(C)C)cc2)c2c1CCN(c1ccc(C(=O)N3CCC4(CCC(=O)N4)CC3)cn1)C2 [Example 329, N-(4-(3,3-dimethylureido)benzyl)-1-isopropyl-5-(5-(2-oxo-1,8-diazaspiro[4.5]decane-8-carbonyl)pyridin-2-yl)-4,5,6,7-tetrahydro-1H-pyrazolo[4,3-c]pyridine-3-carboxamide] | 1050 nM |

Same assay, conditions: STAT6 NanoLuc luciferase reporter, IL-13 stimulated HaCaT keratinocyte cells; read-out: Reporter EC50

| Compound | EC50 |
| --- | --- |
| CC(C)n1nc(C(=O)NCc2ccc(NC(=O)N3CCC(C(F)F)C3)cc2)c2c1CCN(c1ccc(C(=O)N(C)C)cn1)C2 (racemic) [Example 145, rac-(R)-N-(4-(3-(difluoromethyl)pyrrolidine-1-carboxamido)benzyl)-5-(5-(dimethylcarbamoyl)pyridin-2-yl)-1-isopropyl-4,5,6,7-tetrahydro-1H-pyrazolo[4,3-c]pyridine-3-carboxamide] | 6 nM |

Source: patent US20250320213A1, “Nitrogen-Containing Heterocyclic Compounds” (Pfizer Inc., priority 2024, published 2025)
